Assays:
Format in all cases: cell-based
GLP-1R = molecular target: T1, GLP-1R (UniProt P01275+P32301); experiment: cell-based; set-up: Activity % of compound 1 (potentiation of GLP-1 induced cAMP production): concentration or dose not given beside the values; conditions: for Activity % of compound 1 (potentiation of GLP-1 induced cAMP production): relative to compound 1 = 100; for effect on GLP-1R signaling (GLP-1 induced cAMP production): FIG. 1A to 1E
T1 construct: endogenous in cells; host or cells: RINm5F cells stably expressing the RG-cAMP BRET sensor
Protocol: Next day, cells were washed twice with 0.1 ml phenol red-free MEM containing 5 mM HEPES, and incubated in the same medium for 1 h. The medium was replaced with 90 μL the same medium containing 1 mg/ml BSA and 5 μM DeepBlueC. The whole plate was immediately loaded onto a SpectraMax Paradigm Detection Platform equipped with a Dual-Color luminescence detection cartridge and SoftMax Pro 6.2.2 (Molecular Devices, Sunnyvale, Calif.) to obtain the background BRET signal based on the sequential integration of the luminescence detected at 370-450 and 500-530 nm over 60-150 s. Each well was then stimulated by adding 10 μl of 10× solutions of peptide and lipids and 1 mg/ml BSA in phenol red-free MEM containing 5 mM HEPES, and BRET signals were obtained immediately under identical settings. The BRET ratio is the ratio of light emitted between 90 and 300 s at 500-530 nm to that emitted at 370-450 nm. […] The dose-response curve, maximal response, and concentration of peptide needed to yield half-maximal response (EC50) were obtained by nonlinear regression to fit the data to the agonist versus response equation using Prism software 5.0 (GraphPad, San Diego). Unless specified, all cAMP response data are the means±S.E. from three independent experiments with triplicate assays.

H460 cells = experiment: Cell viability test (PrestoBlue) in H460 cells; conditions: 72-h treatment, FIG. 5; for cytotoxicity: test concentration 0.78 to 100 μM
Protocol: Cytotoxicity of H460 cells to various compounds was assessed using PrestoBlue® reagent, which was modified by the reducing environment of the viable cell and turns from blue to red in color. In brief, 3,000 H460 cells were seeded with 0.1 ml of RPMI 1640 medium in each well of a 96-well plate and incubated at 37° C. for 24 h before compound treatment. After a 72-h compound treatment, PrestoBlue™ cell viability reagent (Invitrogen) was added to each well according to the manufacturer's protocol. The plates were further incubated in the dark at 37° C. in 5% CO2 for 10 min, and absorbance of all wells was read at both the 570- and 600-nm wavelengths using automatic enzyme-linked immunosorbent assay plate reader (Molecular Devices, Union City, Calif.). The raw data were normalized and corrected according to the manufacturer's protocol. All samples were tested in triplicate, and each test was repeated three times. Cell viability was calculated using the following formula: percent of 100×(average corrected values of compound treated cells)/(average corrected values of untreated cells).

GLP-1R-V2R chimeric = molecular target: T2, GLP-1R-V2R chimeric (Homo sapiens, UniProt P01275+P43220); experiment: Receptor endocytosis assay in U2OS cells co-expressing GLP-1R-V2R and β-arrestin2:GFP
T2 construct: the first 440 amino acids of the GLP-1R (Met-1 to Thr-440); vasopressin V2 receptor C-terminal tail, last 29 amino acids, Ala-343 to Ser-371 (AVPR2); expressed in transfected cells; host or cells: U2OS osteosarcoma cells stably expressing beta-arrestin2:GFP (Norak Biosciences), transfected with pcDNA3-GLP-1R-V2R
Text: U2OS osteosarcoma cell line stably expressing a β-arrestin2:GFP fusion protein was obtained from Norak Biosciences. The pcDNA3 GLP-1R-V2R chimeric construct contains the first 440 amino acids of the GLP-1R (Met-1 to Thr-440) fused to the last 29 amino acids of the vasopressin V2 receptor (Ala-343 to Ser-371) and separated by two alanine residues as linker. […]
Images were acquired on an XL model of the ImageXpress® Micro System (Molecular Devices, Sunnyvale, Calif.) and analyzed with MetaXpress High-Content Image Acquisition and Analysis Software (Molecular Devices, Sunnyvale, Calif.) using the granularity and variable grain analysis modules. […] The number of spots, total area covered by spots, average and integrated fluorescence intensity of the spots, and nuclear area and fluorescence intensity were logged into the database. Data from abnormal cells for which the values were above threshold (abnormal: average nuclear staining intensity <500; integrated fluorescence intensity of area covered by spots <150) were ruled out using Acuity Xpress, followed by selection of the measurement method, spot fluorescence integrated intensity to calculate the average number of spots per nucleus. […]

RINm5F cells = experiment: GLP-1-elicited insulin release from RINm5F cells; conditions: FIG. 4

T1 sequence (P32301 22-463): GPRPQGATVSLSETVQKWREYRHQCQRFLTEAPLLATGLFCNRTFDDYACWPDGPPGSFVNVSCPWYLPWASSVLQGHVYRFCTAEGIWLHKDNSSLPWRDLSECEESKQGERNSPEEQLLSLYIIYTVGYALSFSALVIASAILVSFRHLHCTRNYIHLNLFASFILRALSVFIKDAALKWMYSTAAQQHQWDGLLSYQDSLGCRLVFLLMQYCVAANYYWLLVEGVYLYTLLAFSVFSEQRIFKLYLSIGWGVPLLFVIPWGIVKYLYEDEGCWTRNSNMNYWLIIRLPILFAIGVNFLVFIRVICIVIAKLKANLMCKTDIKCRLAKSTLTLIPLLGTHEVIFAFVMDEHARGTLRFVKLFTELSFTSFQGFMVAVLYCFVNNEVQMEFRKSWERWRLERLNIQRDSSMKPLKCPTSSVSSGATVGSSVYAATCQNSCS
T1 sequence (P01275 98-127 limits assumed): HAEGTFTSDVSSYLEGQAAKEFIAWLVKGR
T2 sequence (P43220 with tags, fused parts or gaps limits assumed): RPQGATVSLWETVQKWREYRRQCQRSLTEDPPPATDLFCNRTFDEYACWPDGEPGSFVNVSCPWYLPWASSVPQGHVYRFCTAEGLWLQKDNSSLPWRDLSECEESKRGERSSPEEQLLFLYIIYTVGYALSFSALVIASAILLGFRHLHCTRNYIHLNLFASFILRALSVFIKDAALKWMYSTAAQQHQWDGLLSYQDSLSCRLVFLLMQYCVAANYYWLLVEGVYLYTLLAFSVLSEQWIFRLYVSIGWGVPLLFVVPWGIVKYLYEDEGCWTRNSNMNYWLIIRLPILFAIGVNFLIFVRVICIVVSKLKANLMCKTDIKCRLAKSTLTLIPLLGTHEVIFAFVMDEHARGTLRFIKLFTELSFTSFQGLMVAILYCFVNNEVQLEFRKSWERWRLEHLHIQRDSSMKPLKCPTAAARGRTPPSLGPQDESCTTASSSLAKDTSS
T2 sequence (P01275 98-127 limits assumed, stated change not applied): as the sequence (P01275 98-127 limits assumed) above

| Compound | Activity % of compound 1 (potentiation of GLP-1 induced cAMP production) (GLP-1R) [%] | also measured |
| --- | --- | --- |
| CCCCC/C=C/C/C=C/CCCCCCCC(=O)OCC(O)CO (stereo not shown) [1-monolinolein] | 80 |  |
| CCCCCCCC/C=C\CCCCCCCC(=O)OC(CO)CO [2-oleoylglycerol] |  | cytotoxicity (H460 cells): did not exhibit detectable cytotoxicity |
| C[C@@H]([C@H](C)O)[C@H](N)C(=O)O [4-hydroxyisoleucine] | <10 |  |
| CCCCCC/C=C/C=C/CCCCCCCC(=O)O [9(E),11(E)-conjugated linoleic acid] | 30 |  |
| CCCCCC/C=C/C=C\CCCCCCCC(=O)O [9(Z),11(E)-conjugated linoleic acid] | 25 |  |
| CCCCC/C=C\C=C\CCCCCCCCC(=O)O [10(E),12(Z)-conjugated linoleic acid] | 30 |  |
| CCCCCC/C=C/CCCCCCCCCC(=O)O [11-trans-octadecenoic acid] | 10 |  |
| CCCCC/C=C\C/C=C\CCCCCCCC(=O)NC1C(=O)OC(C)C1C (stereo not shown) [Compound 1, (9Z,12Z)-N-(4,5-Dimethyl-2-oxotetrahydrofuran-3-yl)octadeca-9,12-dienamide] | 100 | relative potency among the compounds of formula (I) tested in example 2 (GLP-1R; RINm5F cells): most potency; effect on GLP-1R signaling (GLP-1 induced cAMP production) (GLP-1R; RINm5F cells): enhance the GLP-1R signaling; shift of the GLP-1 dose-response curve (cAMP production) to the left (GLP-1R; compound 1 increased from 0.8 μM to 26 μM, FIG. 2 panel A): > 10 fold; EC50 (GLP-1R; dose dependent and saturable, FIG. 2 panel B): 3.7 µM; EC50 (GLP-1R-V2R chimeric): 0.87 µM; effect on insulin release elicited by GLP-1 (RINm5F cells; 7.7 μM compound added to 2 nM GLP-1): significantly enhanced; insulin release by compound alone (RINm5F cells; compound alone, without GLP-1): did not trigger any insulin release; cytotoxicity (H460 cells): did not exhibit detectable cytotoxicity |
| CCC=CCC=CCC=CCC=CCC=CCC=CCCC(=O)N[C@H]1C(=O)O[C@@H](C)[C@@H]1C [Compound 12] |  | effect on GLP-1R signaling (GLP-1 induced cAMP production) (GLP-1R; RINm5F cells): enhance the GLP-1R signaling |
| CC/C=C\C/C=C\C/C=C\C/C=C\C/C=C\C/C=C\CCC(=O)O [Docosahexaenoic acid] | 60 |  |
| CC/C=C\C/C=C\C/C=C\C/C=C\C/C=C\C/C=C\CCC(=O)NCCO [Docosahexaenoyl ethanolamide] | 20 |  |
| CC/C=C/C/C=C/C/C=C/C/C=C/C/C=C/C/C=C/CCC(=O)NCC(=O)O [Docosahexaenoyl glycine] | 15 |  |
| CC/C=C\C/C=C\C/C=C\C/C=C\C/C=C\C/C=C\CCC(=O)NCCc1c[nH]c2ccc(O)cc12 [Docosahexaenoyl serotonin] | 15 |  |
| CC/C=C\C/C=C\C/C=C\C/C=C\C/C=C\CCCC(=O)O [Eicosapentaenoic acid] | 60 |  |
| CC/C=C\C/C=C\C/C=C\C/C=C\C/C=C\CCCC(=O)NCCO [Eicosapentaenoyl ethanolamide] | 90 | Activity % of compound 1 (potentiation of GLP-1 induced cAMP production) (GLP-1R; listed as eicosanpentaenoyl ethanolamide): about 90% |
| CC/C=C\C/C=C\C/C=C\C/C=C\C/C=C\CCCC(=O)NCCc1c[nH]c2ccc(O)cc12 [Eicosapentaenoyl serotonin] | 20 |  |
| CCCCC/C=C\C/C=C\CCCCCCCC(=O)OCC [Ethyl linoleate] | 60 |  |

| Compound | Activity % of compound 1 (potentiation of GLP-1 induced cAMP production) (GLP-1R) [%] | also measured |
| --- | --- | --- |
| CCCCC/C=C/C/C=C/CCCCCCCC(=O)O [Linoelaidic acid] | 30 |  |
| CCCCC/C=C\C/C=C\CCCCCCCC(=O)NCCO [Linoleoyl ethanolamide] | 90 | Activity % of compound 1 (potentiation of GLP-1 induced cAMP production) (GLP-1R; listed as linoleoyl ethanolamide): about 90% |
| CCCCC/C=C\C/C=C\CCCCCCCC(=O)NCC(=O)O [Linoleoyl glycine] | 80 |  |
| CCCCC/C=C\C/C=C\CCCCCCCC(=O)OC [Methyl cis,cis-9,12-octadecadienoate] | 15 |  |
| CCCCC/C=C/C/C=C/CCCCCCCC(=O)OC [Methyl linolelaidate] | 30 |  |
| CCCCC/C=C\C/C=C\C/C=C\CCCCC(=O)OC [Methyl γ-linolenate] | 20 |  |
| CC/C=C\C/C=C\C/C=C\CCCCCCCC(=O)N[C@@H](Cc1ccc(O)cc1)C(=O)O [N-(α-linolenoyl) tyrosine] | 70 |  |
| CCCCCCCC/C=C\CCCCCCCC(=O)O [Oleic acid] | 35 |  |
| N.N.[Cl][Pt][Cl] [cisplatin] |  | IC50 (H460 cells): 6.7 µM |
| CCCCC/C=C\C/C=C\CCCCCCCC(=O)OC [linoleic acid methyl ester] | 30 |  |
| CC/C=C\C/C=C\C/C=C\CCCCCCCC(=O)OC [linolenic acid methyl ester] | 15 |  |
| CCCCCCCC/C=C\CCCCCCCC(=O)NCCO [oleoylethanolamide] |  | cytotoxicity (H460 cells): did not exhibit detectable cytotoxicity |
| CC/C=C\C/C=C\C/C=C\CCCCCCCC(=O)O [α-linolenic acid] | 15 |  |
| CCCCC/C=C\C/C=C\C/C=C\CCCCC(=O)OC [γ-linoleic acid methyl ester] | 25 |  |
| Cis-octadecenoic acid | 25 |  |
| GLP-1(7-36)-amide |  | insulin release from RINm5F cells (RINm5F cells; 2 nM GLP-1 alone): stimulated a low level of insulin release |

Reference: patent US10392357B2, “Glucagon-like peptide 1 modulator and uses thereof” (Academia Sinica, priority 2015, dated 2019)
